Source: PubChem BioAssay AID788 (SRMLSC, 2007)
pIC50: −log10 of the molar value. Calls of active or inactive are those of the source. How the calls were made is not given here.

Legend:
[1] = growth inhibition of vps1Δ apl2Δ yeast, dose response, post-Golgi transport modulator project, S. cerevisiae, background strain comparison (AID 788); conditions: S. cerevisiae vps1Δ apl2Δ growth inhibition, dose response; at 25 µM (top of the series)
[2] = test system: S. cerevisiae vps1Δ apl2Δ growth inhibition, dose response; test: as above
[3] = test system: S. cerevisiae wild-type background strain growth inhibition; test: as above; conditions: S. cerevisiae vps1Δ apl2Δ growth inhibition, dose response; measured here: wild-type background strain growth

Compound | growth inhibition [1] | pIC50 [2] | pIC50 [3] | IC50 [2]
O=C(Nc1nnc(-c2cccs2)o1)c1cccc(C(F)(F)F)c1 | 36.6% (inactive) |  |  | 
CC(=O)c1ccc(N2CCN(C(=O)c3ccc(Br)cc3)CC2)c(F)c1 |  | 6.20 | 5.18 | 
COc1ccc(NC(=O)N(C2CCCCC2)C(C)c2cccnc2)c(OC)c1 (stereo not given) |  | 5.02 | 4.78 | 
Cc1ccnc(N2C(=O)c3cccc4c([N+](=O)[O-])ccc(c34)C2=O)c1 |  |  | 5.37 | 5.37 µM (inactive)
O=C(CCl)c1ccc(Cc2ncc(C(F)(F)F)cc2Cl)s1 |  |  | 5.06 | 16.2 µM (inactive)
O=C(Cn1ncc2c3ccccc3n(Cc3ccccc3F)c2c1=O)N1CCC2(CC1)OCCO2 |  |  | < 5.00 | > 10 µM (inactive)
CC(=O)NC1C(c2nc3ccccc3s2)=C(c2ccccc2)C(=O)N1c1ccc(C)cc1 (stereo not given) |  |  | 5.72 | 2.62 µM (inactive)
CCc1cc2c(=O)c(Oc3ccccc3F)c(C)oc2c(CN(C)C)c1O |  |  | < 5.00 | > 10 µM (inactive)
O=C(Nc1nnc(-c2ccc3c(c2)CCCC3)o1)c1ccccc1Cl |  |  | 4.97 | 14.6 µM (inactive)
O=[N+]([O-])c1ccc(N2CCN(S(=O)(=O)c3ccc(Cl)cc3)CC2)cc1NCc1cccnc1 |  |  | < 5.00 | > 10 µM (inactive)
CC1=CC(C)(C)Nc2ccc(OC(=O)CN3C(=O)c4cccc5cccc(c45)C3=O)cc21 |  |  | < 5.00 | > 10 µM (inactive)
Cc1cc(=O)oc2c(CN3CCCCC3)c(O)c(Cl)cc12 |  |  | < 5.00 | > 10 µM (inactive)
CCCn1c(SCc2cc(=O)oc3ccc4ccccc4c23)n[nH]c1=O |  |  | < 5.00 | > 10 µM (inactive)
CCOCCCNC(=O)C1CCN(C(=O)N(C)C)CC1 |  |  | < 5.00 | > 10 µM (inactive)
Cc1ccc(S(=O)(=O)N2CCN(C3CCN(Cc4ccccc4)CC3)CC2)cc1 |  | 4.61 | < 5.00 | 
CC1CCCCN1CCNC(=O)Cn1nc(-c2ccccc2)ccc1=O (stereo not given) |  |  | < 5.00 | > 10 µM (inactive)
CCOC(=O)COc1ccccc1C1Nc2ccccc2C(=O)N1c1cccc(Cl)c1 (stereo not given) |  | 4.71 | < 5.00 | 
Cc1ccc(OCC(O)CN2CCN(Cc3ccc4c(c3)OCO4)CC2)c(C)c1 (stereo not given) |  | 5.63 | < 5.00 | 
COC(=O)C1=CN(CCCN2CCCC2=O)C=C(C(=O)OC)C1c1ccccc1C(F)(F)F |  |  | < 5.00 | > 10 µM (inactive)
O=C(NCc1ccc2c(c1)OCO2)c1ccc(CS(=O)(=O)c2cccc(C(F)(F)F)c2)o1 |  |  | < 5.00 | > 10 µM (inactive)
CCOC(=O)C1=C(CSc2nc(-c3ccccc3)ccc2C#N)OC(N)=C(C#N)C1c1cccnc1 (stereo not given) |  |  | < 5.00 | > 10 µM (inactive)
O=C(NC(C(=O)c1ccccc1)N1CCCCC1)c1ccccc1 (stereo not given) |  |  | < 5.00 | > 10 µM (inactive)
COc1ccc(NC(=O)c2ccc(CN3CCN(c4ccccc4)CC3)cc2)cc1 |  |  | < 5.00 | > 10 µM (inactive)
